# According to patent US20140162942A1, “INHIBITION OF CYP3A DRUG METABOLISM” (priority 2010, published 2014):
# Key:
# CYP3A4/5 = test: Clinical study: effect of boceprevir on the pharmacokinetic profile of midazolam in healthy adult subjects; conditions: for AUC(0-t) / Cmax / Tmax: both, human, in vivo, 4 mg; for Tmax: MDZ Tmax
# Protocol: A clinical study was conducted to determine the effects of boceprevir on the pharmacokinetic (PK) profile of midazolam (MDZ) to assess the ability of boceprevir to inhibit CYP3A4/5 in vivo by monitoring its effect on the metabolism of MDZ, a sensitive CYP3A4/5 substrate.
# This study was conducted in healthy adult subjects (seven male and five female subjects), at a single center, in conformance with Good Clinical Practices. The study used a fixed-sequence design ([…]). The PK profile of MDZ and its metabolite (1-hydroxy midazolam [1-0H-MDZ)) was determined when MDZ was administered alone and compared with the PK profile after co-administration of boceprevir as well as following a washout period of 7 days after boceprevir administration.
# Boceprevir (BOC) 800 mg was administered as 4×200 mg capsules. MDZ 4 mg was administered as a single dose of an oral solution.
# Day 1: MDZ 4 mg (oral solution, single dose)
# Days 1 to 5: Boceprevir 800 mg (4×200 mg capsules) TID
# Day 6: MDZ 4 mg (oral solution, single dose) and boceprevir 800 mg (4×200 mg capsules) TID Days 8 and 13: MDZ 4 mg (oral solution, single dose)
# Blood samples for PK analyses were collected: for MDZ and 1-0H-MDZ: Days −1, 6, 8, and 13: predose (Ohr) and at 0.5, 1, 2, 3, 4, 8, 12, and 24 hours postdose for boceprevir: predose (Ohr) on Day 4 and Day 5 and on Day 6: predose (Ohr), and at 0.5, 1, 2, 3, 4, 6, and 8 hr postdose. The 8 hour sample was to be collected prior to the administration of the next dose of Boceprevir.
# HCV NS3 serine protease = HCV NS3 serine protease (Hepatitis C virus genotype 1a, UniProt P27958); conditions: as described in WO2005/015579; cited from earlier work
# HCV NS3 serine protease, sequence (P27958 1658-1711): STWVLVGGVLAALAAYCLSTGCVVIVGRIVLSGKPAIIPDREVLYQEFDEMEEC
# HCV NS3 serine protease, sequence (P27958 1027-1657): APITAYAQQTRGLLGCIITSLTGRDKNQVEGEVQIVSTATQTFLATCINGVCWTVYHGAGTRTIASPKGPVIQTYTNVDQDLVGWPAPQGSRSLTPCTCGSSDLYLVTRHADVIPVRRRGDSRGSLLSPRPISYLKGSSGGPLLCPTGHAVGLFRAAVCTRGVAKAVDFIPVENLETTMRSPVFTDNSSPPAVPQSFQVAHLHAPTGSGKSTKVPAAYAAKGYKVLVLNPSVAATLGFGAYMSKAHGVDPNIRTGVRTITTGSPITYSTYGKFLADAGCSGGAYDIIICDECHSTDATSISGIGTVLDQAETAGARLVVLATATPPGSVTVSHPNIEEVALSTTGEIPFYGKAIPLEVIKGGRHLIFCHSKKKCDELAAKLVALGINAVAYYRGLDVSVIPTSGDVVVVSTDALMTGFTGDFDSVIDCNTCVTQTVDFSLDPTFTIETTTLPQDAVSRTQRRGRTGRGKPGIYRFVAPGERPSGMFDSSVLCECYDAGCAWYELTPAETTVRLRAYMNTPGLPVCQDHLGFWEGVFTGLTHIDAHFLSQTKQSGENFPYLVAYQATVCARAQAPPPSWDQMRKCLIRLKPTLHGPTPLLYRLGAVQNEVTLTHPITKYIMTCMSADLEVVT
SMILES,"Plasma concentrations of MDZ, return to baseline after boceprevir (CYP3A4/5; 48 hours post last administration of boceprevir)","AUC(0-t) (CYP3A4/5; MDZ AUC (0-24 hr) LS Mean, MDZ Alone (Day 8)) [ng·h/mL]","AUC(0-t) (CYP3A4/5; MDZ AUC (0-24 hr) LS Mean, MDZ Alone (Day 13)) [ng·h/mL]","AUC(0-t) (CYP3A4/5; MDZ AUC (0-24 hr) LS Mean, MDZ Alone (Day-1)) [ng·h/mL]","AUC(0-t) (CYP3A4/5; MDZ AUC(0-24 hr), MDZ Alone (Day 8), after boceprevir) [ng·h/mL]","AUC(0-t) (CYP3A4/5; MDZ AUC(0-24 hr), MDZ Alone (Day 13), after boceprevir) [ng·h/mL]","Cmax (CYP3A4/5; MDZ Cmax LS Mean, MDZ Alone (Day 8)) [ng/mL]","Cmax (CYP3A4/5; MDZ Cmax LS Mean, MDZ Alone (Day 13)) [ng/mL]","Cmax (CYP3A4/5; MDZ Cmax LS Mean, MDZ Alone (Day-1)) [ng/mL]","Cmax (CYP3A4/5; MDZ Cmax, MDZ Alone (Day 8), after boceprevir) [ng/mL]","Cmax (CYP3A4/5; MDZ Cmax, MDZ Alone (Day 13), after boceprevir) [ng/mL]","Tmax (CYP3A4/5; MDZ Alone (Day 8), after boceprevir) [h]","Tmax (CYP3A4/5; MDZ Alone (Day 13), after boceprevir) [h]","AUC(0-t) (CYP3A4/5; po, MDZ AUC(0-24 hr), MDZ Alone (Day-1), MDZ 4 mg oral, n = 12) [ng·h/mL]","Cmax (CYP3A4/5; po, MDZ Cmax, MDZ Alone (Day-1), MDZ 4 mg oral, n = 12) [ng/mL]","Tmax (CYP3A4/5; po, MDZ Alone (Day-1), MDZ 4 mg oral, n = 12) [h]",in vitro HCV NS3 serine protease inhibitory activity compared with the compound of Formula 1c (HCV NS3 serine protease)
"Cc1ncc2n1-c1ccc(Cl)cc1C(c1ccccc1F)=NC2 [MDZ, midazolam]",returned to baseline values by Day 8,56.1,43.8,52.9,59.2,45.4,9.82,8.94,9.96,10.3,9.15,2,1,56.4,10.3,2,
"CC(C)(C)NC(=O)N[C@H](C(=O)N1C[C@H]2[C@@H]([C@H]1C(=O)N[C@@H](CC1CCC1)C(=O)C(N)=O)C2(C)C)C(C)(C)C [Formula 1b, (1R,2S,5S)—N-[(1S)-3-amino-1-(cyclobutylmethyl)-2,3-dioxopropyl]-3-[(2S)-2[[[(1,1-dimethylethyl)amino]carbonyl]amino]-3,3-dimethyl-1-oxobutyl]-6,6-dimethyl-3-azabicyclo[3.1.0]hexane-2-carboxamide]",,,,,,,,,,,,,,,,,significantly higher
